Key:
[1] = tested on: patients with Huntington's disease; test: Add-on trial in patients with Huntington's disease (AIMS, UHDRS); type: in vivo, human; details: 2.5 to 20 mg b.i.d., typical trial
Experimental: A typical trial to establish the effect of the compounds according to the invention on chorea, voluntary motor performance, and functional disability in patients with Huntington's disease encompasses 32 genetically diagnosed patients. (−)-(R)-2-{4-[[3,4-dihydro-2H-benzopyran-2-yl)-methyl]amino]butyl}-1,2-benzoisothiazol-3-(2H)-on-1,1-dioxide monohydrochloride or placebo is administered as “add on” to the conventional treatment, which is maintained unchanged during the whole study. The dose of blinded medication is titrated over a period of 3 weeks in a range from 2.5 to 20 mg b.i.d. Then the medication is held constant for 1 week. Assessments are performed in the week before and at the last day of the trial. Chorea is scored using the abnormal involuntary movement scale (AIMS, W. Guy, in: ECDEU assessment manual. Rockville Md: US dept. of health, education and welfare, 1976: 534-537), the unified Huntington's disease rating scale (UHDRS, Huntington study group, 1996, Movement Disord, 11: 136-42), and judgement of video recordings. Voluntary motor performance is assessed using the UHDRS motor scale. Patients and their partners complete a questionnaire regarding functional disability.

[2] = tested on: mutant dystonic hamster; test: Mutant dystonic hamster, scoring of dystonic attacks; type: in vivo; details: scoring system
Source text: A typical animal model is the mutant dystonic hamster according to A. Richter and W. Löscher, Prog. Neurobiol. 1998; 54: 633-677. In this genetically dystonic hamsters, dystonic attacks are provoked by taking the animal from the home cage and placing it on a balance. The dystonic syndrome consists of a sequence of abnormal movements, and the severity of the single symptoms is rated by a scoring system.

[3] = tested on: rats with posthypoxic myoclonus; test: Posthypoxic myoclonus in rats after cardiac arrest; type: in vivo, rat; details: after 8 minutes cardiac arrest
Experimental: A typical animal model for myoclonus is myoclonus induced by an acute hypoxic episode according to D. D. Truong et al., Mov. Dsiord., 1994; 9: 201-206). In this model of posthypoxic myoclonus, rats undergo a cardiac arrest for 8 minutes and are resuscitated thereafter. Myoclonic jerks occur spontaneously but can be provoked by auditory stimulation, too, worsening over the days following cardiac arrest.

[4] = tested on: reserpinized rat or mouse; test: Reserpinized rat or mouse, akinesia in activity meters; type: in vivo; details: 24 h after reserpine
Experimental: A typical animal model is the reserpinized rat or mouse (e.g. M. S. Starr and B. S. Starr, J. Neural Transm.—Park. Dis. Dement. Sect., 1994; 7: 133-142; M. Gossel et al., J. Neural Transm.—Park. Dis. Dement. Sect., 1995; 10: 27-39; N. R. Hughes et al., Mov. Disord., 1998; 13: 228-233). Reserpine is a potent depleter of monoamines and produces nearly complete akinesia in both species. Prominent 24 h after application, the distance travelled and the time active is nearly zero as measured in conventional activity meters.

[5] = tested on: neuroleptics sensitized monkey; test: Neuroleptics sensitized monkey, haloperidol challenge; type: in vivo; details: after haloperidol challenge, scoring system
Source text: Another typical animal model is the neuroleptics sensitized monkey according to D. E. Casey, Psychopharmacology, 1996; 124: 134-140. Monkeys treated repeatedly with conventional neuroleptics are highly sensitive to a subsequent challenge dose of neuroleptic drugs. When challenged, the monkeys immediately show extrapyramidal motor side effects such as dystonia, dyskinesias, akathisia, and bradykinesia which are rated by a scoring system. The conventional neuroleptic drug haloperidol is given as a challenge.

[6] = tested on: Weaver mutant mouse; test: Weaver mutant mouse, locomotor activity; type: in vivo; details: activity cages
Source text: (§1) Typical genetic models in mutant animals are the Campus Syndrome in the Pietrain pig according to A. Richter et al. (Exp. Neurology, 1995; 134: 205-213) or the Weaver mutant mouse according to J. R. Simon and B. Ghetti (Mol. Neurobiol., 1994; 9: 183-189). In the Campus Syndrome model, these mutant pigs show a high-frequency tremor when standing and during locomotion, but not while lying at rest. Assessment of tremor is made by accelerometric recording. In the Weaver mutant mouse, degenerative cerebellar atrophy is found in association with tremor, gait instability, and toppling over the sides after a few steps.

[7] = tested on: Pietrain pig; test: Campus Syndrome in the Pietrain pig, tremor; type: in vivo; details: when standing and during locomotion
Source text: as §1

[8] = tested on: 3-NP treated rats; test: Systemic 3-nitropropionic acid (3-NP) model in rats, nocturnal activity; type: in vivo, rat
Experimental: A typical animal model is the systemic 3-nitropropionic acid (3-NP) model in rats according to C. V. Borlongan et al., Brain Res., 1995; 697: 254-257. Rats are treated with injections of the selective striatal neurotoxin 3-NP i.p. every fourth day (C. V. Borlongan et al., Brain Res. Protocols, 1997; 1: 253-257). After two injections of 3-NP, rats display nocturnal hyperactivity reflecting symptoms of early Huntington's disease, whereas rats treated with four injections of 3-NP display nocturnal akinesia (hypoactivity) reflecting symptoms of late Huntington's disease. Nocturnal activity is automatically measured in conventional acitivity cages by infrared beams. (−)-(R)-2-{4-[[3,4-dihydro-2H-benzopyran-2-yl)-methyl]amino]butyl}-1,2-benzoisothiazol-3-(2H)-on-1,1-dioxide or a pharmaceutical acceptable salt thereof reduced both the nocturnal hyperactivity and akinesia.

[9] = tested on: rats challenged with haloperidol; test: Neuroleptics-induced muscle rigidity in rats (haloperidol); type: in vivo, rat; details: resistance to passive flexion and extension of the hind limb
Source text: A typical animal model is neuroleptics-induced muscle rigidity in rats according to S. Wolfarth et al., Arch. Pharmacol. 1992; 345: 209-212. Rats are challenged with the conventional neuroleptic drug haloperidol which enhances muscle tone. Muscle tone is electromechanically measured as the resistence to passive flexion and extension of the hind limb. (−)-(R)-2-{4-[[3,4-dihydro-2H-benzopyran-2-yl)-methyl]amino]butyl}-1,2-benzoisothiazol-3-(2H)-on-1,1-dioxide or a pharmaceutically acceptable salt thereof decreased the muscle tone enhanced by haloperidol.

[10] = tested on: cataleptic rat; test: Reversal of catalepsy in rats (oral ED50); type: in vivo; details: result in words
Experimental: Extrapyramidal motor side effects in e.g. rodents are measured by the ability of a drug to induce catalepsy. Catalepsy is defined as a state where an animal continues to remain in an unnormal (nonphysiological ‘uncomfortable’) posture for a long time (e.g.: M. E. Stanley and S. D. Glick, Neuropharmacology, 1996; 15: 393-394; C. J. E. Niemegeers and P. Janssen, Life Sci., 1979, […]). For example, if a hindpaw of a rat is placed on an elevated level, e.g. a platform elevated 3 cm above ground level, a normal rat immediately withdraws the hindpaw from the platform to the ground level. A cataleptic rat remains in this unnatural posture even for minutes.

O=C1c2ccccc2S(=O)(=O)N1CCCCNC[C@H]1CCc2ccccc2O1 [(−)-(R)-2-{4-[[3,4-dihydro-2H-benzopyran-2-yl)-methyl]amino]butyl}-1,2-benzoisothiazol-3-(2H)-on-1,1-dioxide]
involuntary motor performance ([1]; AIMS, UHDRS, video): significant improvement | voluntary motor performance ([1]; UHDRS motor scale): significant improvement | severity of dystonic symptoms [2]: dose-dependently reduced | number of auditory-evoked myoclonic jerks [3]: dose-dependently reduce | number of spontaneous myoclonic jerks [3]: dose-dependently reduce | akinesia [4]: dose-dependently reduced akinesia | distance travelled and time active ([4]; activity meters): restored distance travelled and time active to about the level of normal animals | extrapyramidal motor side effects (dystonia, dyskinesias, akathisia, bradykinesia) [5]: dose-dependently reduce | locomotor activity [6]: enhanced locomotor activity | Campus Syndrome tremor [7]: reduced disabling tremor when standing and during locomotion | nocturnal akinesia (hypoactivity) ([8]; after four injections of 3-NP (late Huntington's disease)): reduced | nocturnal hyperactivity ([8]; after two injections of 3-NP (early Huntington's disease)): reduced | muscle tone enhanced by haloperidol [9]: decreased | potency in reversing catalepsy [10]: extraordinary potency in reversing catalepsy
